Test results taken from ChEMBL document CHEMBL1137672, “Synthesis and pharmacological evaluation of 2-substituted benzo[b]thiophenes as anti-inflammatory and analgesic agents” (Eur J Med Chem, 2009).

Experiments:
Rattus norvegicus [1] = assay: Antiinflammatory against carrageenan-induced paw edema in Sprague-Dawley rat assessed as remaining paw edema at 25 mg/kg, sc administered 30 mins before carrageenan challenge measured after 1 hr by plethysmometer relative to control; assay type: functional; conditions: route subcutaneous
Rattus norvegicus [2] = assay: Antiinflammatory against carrageenan-induced paw edema in Sprague-Dawley rat assessed as remaining paw edema at 25 mg/kg, sc administered 30 mins before carrageenan challenge measured after 2 hrs by plethysmometer relative to control; assay type: functional; conditions: route subcutaneous
Rattus norvegicus [3] = assay: Antiinflammatory against carrageenan-induced paw edema in Sprague-Dawley rat assessed as remaining paw edema at 25 mg/kg, sc administered 30 mins before carrageenan challenge measured after 3 hrs by plethysmometer relative to control; assay type: functional; conditions: route subcutaneous
Rattus norvegicus [4] = assay: Antiinflammatory against carrageenan-induced paw edema in Sprague-Dawley rat assessed as remaining paw edema at 25 mg/kg, sc administered 30 mins before carrageenan challenge measured after 4 hrs by plethysmometer relative to control; assay type: functional; conditions: route subcutaneous
Rattus norvegicus [5] = assay: Antiinflammatory against carrageenan-induced paw edema in Sprague-Dawley rat assessed as remaining paw edema at 50 mg/kg, sc administered 30 mins before carrageenan challenge measured after 1 hr by plethysmometer relative to control; assay type: functional; conditions: route subcutaneous
Rattus norvegicus [6] = assay: Antiinflammatory against carrageenan-induced paw edema in Sprague-Dawley rat assessed as remaining paw edema at 50 mg/kg, sc administered 30 mins before carrageenan challenge measured after 2 hrs by plethysmometer relative to control; assay type: functional; conditions: route subcutaneous
Rattus norvegicus [7] = assay: Antiinflammatory against carrageenan-induced paw edema in Sprague-Dawley rat assessed as remaining paw edema at 50 mg/kg, sc administered 30 mins before carrageenan challenge measured after 3 hrs by plethysmometer relative to control; assay type: functional; conditions: route subcutaneous
Rattus norvegicus [8] = assay: Antiinflammatory against carrageenan-induced paw edema in Sprague-Dawley rat assessed as remaining paw edema at 50 mg/kg, sc administered 30 mins before carrageenan challenge measured after 4 hrs by plethysmometer relative to control; assay type: functional; conditions: route subcutaneous
Rattus norvegicus [9] = assay: Analgesic activity in Sprague-Dawley rat assessed as change in latency time required to elicit jumping or hind paw licking at 25 mg/kg, sc administered 1 hr prior testing measured after 1 hr of post dose by hot plate method relative to basal level; assay type: functional; conditions: route subcutaneous
Rattus norvegicus [10] = assay: Analgesic activity in Sprague-Dawley rat assessed as change in latency time required to elicit jumping or hind paw licking at 25 mg/kg, sc administered 1 hr prior testing measured after 2 hrs of post dose by hot plate method relative to basal level; assay type: functional; conditions: route subcutaneous
Mus musculus [11] = assay: Analgesic activity in Swiss albino mouse assessed as inhibition of acetic acid-induced abdominal constriction at 25 mg/kg, sc administered 30 mins prior to acetic acid challenge measured for 30 mins relative to control; assay type: functional; conditions: Abdomen, route subcutaneous
Rattus norvegicus [12] = assay: Gastrointestinal toxicity in Sprague-Dawley rat assessed as gastric mucosal lesion at 50 mg/kg, po daily for 1 week; assay type: organism-based, Gastric mucosa; set-up: dose 50 mg/kg, route oral; conditions: in vivo, 168 h
Rattus norvegicus [13] = assay: Hepatotoxicity in Sprague-Dawley rat assessed as serum alanine aminotransferase level at 50 mg/kg, po daily for 1 week by Reitman-Frankel colorimetric procedure; assay type: toxicity, organism-based; set-up: dose 50 mg/kg, route oral; conditions: in vivo, 168 h
Rattus norvegicus [14] = assay: Hepatotoxicity in Sprague-Dawley rat assessed as serum aspartate aminotransferase level at 50 mg/kg, po daily for 1 week by Reitman-Frankel colorimetric procedure; assay type: toxicity, organism-based; set-up: dose 50 mg/kg, route oral; conditions: in vivo, 168 h
Rattus norvegicus [15] = assay: Analgesic activity in Sprague-Dawley rat assessed as latency time required to elicit jumping or hind paw licking at 25 mg/kg, sc administered 1 hr prior testing measured after 2 hrs of post dose by hot plate method; assay type: functional; conditions: route subcutaneous
Rattus norvegicus [16] = assay: Antiinflammatory against carrageenan-induced paw edema in Sprague-Dawley rat assessed as remaining paw edema at 10 mg/kg, sc administered 30 mins before carrageenan challenge measured after 2 hrs by plethysmometer relative to control; assay type: functional; conditions: route subcutaneous
Rattus norvegicus [17] = assay: Antiinflammatory against carrageenan-induced paw edema in Sprague-Dawley rat assessed as remaining paw edema at 10 mg/kg, sc administered 30 mins before carrageenan challenge measured after 3 hrs by plethysmometer relative to control; assay type: functional; conditions: route subcutaneous
Rattus norvegicus [18] = assay: Antiinflammatory against carrageenan-induced paw edema in Sprague-Dawley rat assessed as remaining paw edema at 10 mg/kg, sc administered 30 mins before carrageenan challenge measured after 1 hr by plethysmometer relative to control; assay type: functional; conditions: route subcutaneous
Rattus norvegicus [19] = assay: Antiinflammatory against carrageenan-induced paw edema in Sprague-Dawley rat assessed as remaining paw edema at 10 mg/kg, sc administered 30 mins before carrageenan challenge measured after 4 hrs by plethysmometer relative to control; assay type: functional; conditions: route subcutaneous
Rattus norvegicus [20] = assay: Analgesic activity in Sprague-Dawley rat assessed as change in latency time required to elicit jumping or hind paw licking at 10 mg/kg, sc administered 1 hr prior testing measured after 1 hr of post dose by hot plate method relative to basal level; assay type: functional; conditions: route subcutaneous
Rattus norvegicus [21] = assay: Analgesic activity in Sprague-Dawley rat assessed as change in latency time required to elicit jumping or hind paw licking at 10 mg/kg, sc administered 1 hr prior testing measured after 2 hrs of post dose by hot plate method relative to basal level; assay type: functional; conditions: route subcutaneous
Mus musculus [22] = assay: Analgesic activity in Swiss albino mouse assessed as inhibition of acetic acid-induced abdominal constriction at 10 mg/kg, sc administered 30 mins prior to acetic acid challenge measured for 30 mins relative to control; assay type: functional; conditions: Abdomen, route subcutaneous

SMILES | Activity (Rattus norvegicus [1]) [%] | Activity (Rattus norvegicus [2]) [%] | Activity (Rattus norvegicus [3]) [%] | Activity (Rattus norvegicus [4]) [%] | Activity (Rattus norvegicus [5]) [%] | Activity (Rattus norvegicus [6]) [%] | Activity (Rattus norvegicus [7]) [%] | Activity (Rattus norvegicus [8]) [%] | Activity (Rattus norvegicus [9]) [%] | Activity (Rattus norvegicus [10]) [%] | inhibition in vivo at 25 mg/kg (Mus musculus [11]) [%] | Activity (Rattus norvegicus [12]) | Activity (Rattus norvegicus [13]) | Activity (Rattus norvegicus [14]) | Activity (Rattus norvegicus [15]) [s] | further results
NNC(=O)Nc1cc2cc([N+](=O)[O-])ccc2s1 | 59.7 | 71.2 | 79 | 80 | 45.9 | 45.9 | 54.3 | 56.4 | 19.4 | 7.5 | -43.4 | Non-toxic | Non-toxic | Non-toxic |  | 
NNC(=O)c1cc2cc([N+](=O)[O-])ccc2s1 | 49.4 | 51.9 | 55.9 | 55.9 | 38.2 | 42.2 | 46.3 | 51.3 | 24.7 | 31.6 | -88.2 | Non-toxic | Non-toxic | Non-toxic |  | 
O=C(N/N=C/c1c[nH]c2ccccc12)c1cc2cc([N+](=O)[O-])ccc2s1 | 63.2 | 89.1 | 90.1 | 90 | 36.9 | 46.5 | 46.6 | 49.6 | 16.6 |  | 16.9 | Non-toxic | Non-toxic | Non-toxic | 14.72 | 
Cc1ccc(/C=N/NC(=O)c2cc3cc([N+](=O)[O-])ccc3s2)o1 | 55.9 | 77.2 | 92.2 | 92 | 37.5 | 41.6 | 41.3 | 40.7 | 19.8 | 22.39 | -43.1 | Non-toxic | Non-toxic | Non-toxic |  | 
O=C(NNC(=S)Nc1ccccc1)c1cc2cc([N+](=O)[O-])ccc2s1 | 40 | 48.1 | 54.6 | 58.7 | 35.7 | 42.7 | 45.3 | 46.2 | 36.5 |  | -63.4 | Non-toxic | Non-toxic | Non-toxic | 16.66 | 
CN1C(C(=O)Nc2ccccn2)=C(O)c2ccccc2S1(=O)=O [PIROXICAM] |  |  |  |  |  |  |  |  |  |  |  |  |  |  |  | Activity (Rattus norvegicus [16]): 42.9%; Activity (Rattus norvegicus [17]): 51.4%; Activity (Rattus norvegicus [18]): 35.9%; Activity (Rattus norvegicus [19]): 51.4%; Activity (Rattus norvegicus [20]): 21.4%; Activity (Rattus norvegicus [21]): 8.3%; inhibition in vivo at 10 mg/kg (Mus musculus [22]): -56.9%
